Experimental data published in ChEMBL document CHEMBL5620368, “Molecular-level strategic goals and repressors in Leishmaniasis - Integrated data to accelerate target-based heterocyclic scaffolds” (Eur J Med Chem, 2023).
Values after ≈ are worked out from the molar mass of the structure shown. One block for each compound: values may come before it.

How the values were obtained:
Arginase [1] = target: T1, Arginase (Leishmania amazonensis, UniProt O96394); experiment: Inhibition of Leishmania amazonensis Arginase
Arginase [2] = target: T1, Arginase; experiment: Inhibition of Leishmania amazonensis Arginase assessed as inhibition constant
Leishmania infantum [3] = experiment: Antileishmanial activity against GFP-expressing Leishmania infantum intracellular amastigotes infected in human THP-1 derived macrophage cells assessed as reduction in parasite viability measured for 72 hrs by resazurin/alamar blue fluorometric assay; type: functional, organism-based; conditions: THP-1, 72 h
[4] = Inhibition of recombinant rat liver arginase
Leishmania donovani [5] = experiment: Antileishmanial activity against Leishmania donovani promastigotes assessed as reduction in parasitic growth by MTT assay; type: functional, organism-based
[6] = Inhibition of Leishmania infantum Trypanothione reductase expressed in Escherichia coli BL21 (DE3) using trypanothione as substrate preincubated for 3 mins followed NADPH addition by Dixon plot analysis
Leishmania mexicana = experiment: Antileishmanial activity against Leishmania mexicana promastigotes MHOM/B2/62/BEL21 assessed as reduction in parasite growth by tryphan blue staining based analysis; type: functional, organism-based
DNA topoisomerase I = target: T2, DNA topoisomerase I (Leishmania donovani (strain BPK282A1), UniProt E9BRC0); experiment: Inhibition of Leishmania donovani DNA topoisomerase I
T2 sequence (E9BRC0 whole entry): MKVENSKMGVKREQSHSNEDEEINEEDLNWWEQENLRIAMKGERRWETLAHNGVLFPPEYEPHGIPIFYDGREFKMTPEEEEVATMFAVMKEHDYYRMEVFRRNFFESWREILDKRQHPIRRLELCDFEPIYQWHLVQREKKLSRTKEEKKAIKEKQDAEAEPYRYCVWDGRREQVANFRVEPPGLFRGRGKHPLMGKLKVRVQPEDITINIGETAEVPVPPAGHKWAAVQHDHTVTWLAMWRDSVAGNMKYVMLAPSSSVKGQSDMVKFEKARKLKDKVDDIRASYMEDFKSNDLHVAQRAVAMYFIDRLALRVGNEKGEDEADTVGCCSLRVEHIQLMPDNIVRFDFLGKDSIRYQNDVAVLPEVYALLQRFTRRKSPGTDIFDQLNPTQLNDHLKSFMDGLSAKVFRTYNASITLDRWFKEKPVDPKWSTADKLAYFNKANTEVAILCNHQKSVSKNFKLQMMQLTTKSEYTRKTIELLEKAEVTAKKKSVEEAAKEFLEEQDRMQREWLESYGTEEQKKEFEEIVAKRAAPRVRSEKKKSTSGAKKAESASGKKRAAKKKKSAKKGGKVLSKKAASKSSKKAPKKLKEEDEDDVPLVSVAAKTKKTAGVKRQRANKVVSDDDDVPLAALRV

Leishmania amazonensis [7] = experiment: Antileishmanial activity against Leishmania amazonensis intracellular amastigotes assessed as parasite growth inhibition; type: functional, organism-based
Leishmania donovani [8] = experiment: Antileishmanial activity against Leishmania donovani intracellular amastigotes assessed as parasite growth inhibition; type: functional, organism-based
Leishmania donovani [9] = experiment: Antileishmanial activity against Leishmania donovani promastigotes assessed as parasite growth inhibition incubated for 72 hrs by Alamar blue staining based analysis; type: functional, organism-based
Leishmania donovani [10] = experiment: Antileishmanial activity against Leishmania donovani promastigotes infected in hamster assessed as reduction in parasite load in spleen; type: functional, organism-based
Leishmania donovani [11] = experiment: Antileishmanial activity against Leishmania donovani MHOM/IN/1983/AG83 promastigote assessed as reduction in parasite growth incubated for 12 hrs by MTT assay; type: functional, organism-based; conditions: MHOM/IN/1983/AG83, 12 h
Leishmania infantum [12] = experiment: Antileishmanial activity against Leishmania infantum amastigotes assessed as inhibition of parasite growth; type: functional, organism-based
Leishmania donovani [13] = experiment: Antileishmanial activity against Leishmania donovani promastigotes infected in golden hamster assessed as reduction in parasite load in spleen at 3 mg/kg administered twice per week for 4 weeks relative to control; type: functional; parameters: scale not given: the % may be the effect or the level left
Leishmania donovani [14] = experiment: Antileishmanial activity against Leishmania donovani Ag83 amastigotes infected in BALB/c mouse macrophage assessed as cell viability incubated for 48 hrs by PI staining based analysis; type: functional, organism-based; conditions: Ag83, 48 h
[15] = Inhibition of Leishmania braziliensis DNA topoisomerase I
Leishmania amazonensis [16] = experiment: Antileishmanial activity against Leishmania amazonensis axenic amastigote assessed as inhibition of parasite growth incubated for 72 hrs by MTT colorimetric assay; type: functional, organism-based
Leishmania amazonensis [17] = experiment: Antileishmanial activity against Leishmania amazonensis axenic promastigotes assessed as inhibition of parasite growth incubated for 72 hrs by MTT colorimetric assay; type: functional, organism-based

IC50 (Arginase [1]): 28 µM
Ki (Arginase [2]): 1.3 µM
Compound: O=C(/C=C/c1ccc(O)c(O)c1)O[C@@H](Cc1ccc(O)c(O)c1)C(=O)O

Compound: O=C(Cc1cccc2ccccc12)Nc1ccc([Se][Se]c2ccc(NC(=O)c3cccc4ccccc34)cc2)cc1
EC50 (Leishmania infantum [3]): 0.5 µM

IC50 [4]: 0.77 µM
Compound: Oc1cc(O)c2c(c1)O[C@@H](c1ccc(O)c(O)c1)[C@H](O)C2 [(-)-CATECHIN]

Compound: COC(=O)c1ccc(C2OC(C)(C)C3CC(=O)C(C)C2C3)cc1 (configuration not stated)
IC50 (Leishmania donovani [5]): 4.9 µM

Compound: Cc1cc(NC(=O)c2ccc([N+](=O)[O-])s2)ccc1Br
IC50 [6]: 0.19 µM

Compound: CCc1ccc2c(c1)C1c3ccccc3CC1C(c1ccccn1)N2 (configuration not stated)
IC50 (Leishmania mexicana): 1 µg/mL (≈ 3.06 µM)

IC50 (DNA topoisomerase I): > 100 µM
Compound: CC(=O)Oc1ccc(OC(C)=O)c2cc3c(cc12)CCCC3(C)C

Compound: COc1cc(C)cc2c1C(=O)C1OC1(c1c(C)cc3c(c1OC)C(=O)C1OC1C3=O)C2=O (configuration not stated)
IC50 (Leishmania amazonensis [7]): 0.18 µM
IC50 (Leishmania donovani [8]): 20.7 µM
IC50 (Leishmania donovani [9]): 20.7 µM

Compound: O=C(O[C@@H]1Cc2c(O)cc(O)cc2O[C@@H]1c1cc(O)c(O)c(O)c1)c1cc(O)c(O)c(O)c1 [EPIGALOCATECHIN GALLATE]
IC50 [4]: 3.8 µM

IC50 (Arginase [1]): 14 µM
Ki (Arginase [2]): 26 µM
Compound: CC1OC(O[C@H]2[C@H](O)[C@@H](OCCc3ccc(O)c(O)c3)OC(CO)[C@H]2OC(=O)/C=C/c2ccc(O)c(O)c2)C(O)C(O)C1O (some centres not stated)

IC50 (Leishmania donovani [10]): 11.5 µM
Compound: O=C(c1ccc(Br)cc1)c1cc(O)cc(-c2ccc(Br)cc2)c1
IC50 (Leishmania donovani [11]): 6.01 µM

IC50 [4]: 1.8 µM
Compound: Oc1cc(O)c2c(c1)O[C@H](c1ccc(O)c(O)c1)[C@@H](O)C2 [CIANIDANOL]

Compound: COc1cccc(C2Nc3cccnc3[C@H]3c4ccccc4C[C@@H]23)c1 (some centres not stated)
IC50 (Leishmania infantum [12]): 0.54 µM

Compound: O=C(O)c1cc(O)c(O)c(O)c1 [GALLIC ACID]
IC50 [4]: 3.8 µM

Compound: Cc1ccc2c(c1)C1c3ccccc3CC1C(c1ccccn1)N2 (configuration not stated)
IC50 (Leishmania mexicana): 1 µg/mL (≈ 3.2 µM)

Compound: O=C(Nc1ccc(F)c(-c2ccn3c(N4CCOCC4)cnc3n2)c1)N1CCCC1 [GSK-3494245]
Activity (Leishmania donovani [13]): 95%

Compound: COc1ccc([C@@H]2Cc3cc(OC)c(O)cc3[C@H](CO)[C@@H]2COC2OCC(O)[C@@H](O)[C@H]2O)cc1O (some centres not stated)
EC50 (Leishmania donovani [14]): 1.84 µM

Compound: O=C(CC12CC3CC(CC(C3)C1)C2)Nc1ccc([Se][Se]c2ccc(NC(=O)C34CC5CC(CC(C5)C3)C4)cc2)cc1
EC50 (Leishmania infantum [3]): 1.19 µM

IC50 (DNA topoisomerase I): 5.3 µM
Compound: CCCCCCCCCCCCCCCC#CC(=O)O

IC50 (Arginase [1]): 12 µM
Compound: O=c1cc(-c2ccccc2)oc2c(O)c(O)ccc12 [7,8-DIHYDROXYFLAVONE]

IC50 (DNA topoisomerase I): 50 µM
Compound: COc1cc2c3c(c1)Oc1c(OC)c(OC)c(OC)c4c1C(Cc1ccc(cc1)Oc1cc(ccc1OC)C[C@H]3N(C)CC2)N(C)CC4 (some centres not stated)

IC50 [15]: 71 µM
Compound: O=C1C(O)=C(CC2=C(O)C(=O)c3ccccc3C2=O)C(=O)c2ccccc21

Compound: CO[C@@]12[C@H](COC(N)=O)C3=C(C(=O)C(C)=C(N)C3=O)N1C[C@@H]1N[C@@H]12 [MITOMYCIN]
IC50 (Leishmania amazonensis [16]): 11.5 µM
IC50 (Leishmania amazonensis [17]): 12.8 µM

Compound: CCCCCCCCCCCCCCCCOP(=O)([O-])OCC[N+](C)(C)C [MILTEFOSINE]
IC50 (Leishmania mexicana): 2.18 µg/mL (≈ 5.35 µM)

Compound: Cc1cc2c(c(=O)[nH]1)C(=O)O/C2=C/c1ccccc1
EC50 (Leishmania donovani [14]): 1 µM

IC50 (Arginase [1]): 1.4 µM
Compound: O=c1c(O)c(-c2ccc(O)c(O)c2)oc2cc(O)ccc12 [FISETIN]
